# Test results as given in US20170121678A1, “METHODS AND COMPOSITIONS TO STABILIZE DIFFERENT STEM CELL STATES” (UNIVERSITY OF WASHINGTON - CENTER COMMERCIALIZATION, priority 2014, published 2017).
# Entries after “also recorded” stand apart in the source; their conditions may differ.
# Columns and labels:
# Format in all cases: cell-based, human
# [1] = tested on: histone methylation marks (H3K27me3, H3K9me3, H3K4me3, H3K9/K14Ac) in hESCs; test: Western blot analysis of histone marks; conditions: 1MNA 0.5 mM, 72 hr, primed hESCs (Elf1 AF), low L-methionine media
# Experimental: Cellular extracts were prepared using a lysis buffer containing 20 mM Tris HCl (pH 7.5), 150 mM NaCl, 15% glycerol, 1% Triton, 25 mM (3-glycerolphosphate, 50 mM NaF, 10 mM sodium pyrophosphate, orthovanadate, PMSF), protease inhibitor cocktail (Roche) and 2% SDS. 25 U of BENZONASE® nuclease (EMD Chemicals) and 20 mM of DTT were added to the lysis buffer right before use. Protein concentrations were then determined by the method of Bradford. Fifteen micrograms of protein extracts were loaded, separated by 4-20% SDS-PAGE, and transferred to polyvinylidene difluoride membranes (Hybond-N+, Amersham Pharmacia Biotech). Membranes were blocked with 5% nonfat dry milk for 60 min at room temperature, and incubated overnight at 4° C. with primary antibody. […]
# Naïve hESCs (Elf1 2iLIF) grown on MATRIGEL® were treated with 100 μM of STAT3 inhibitor (Selleckchem) for 6 hr or 24 hr and analyzed for methylation marks by Western blot and ChIP Seq. […]
# (§1) Naïve Elf1 2iLIF cells were transfected in MATRIGEL® coated plates in MEF-CM supplemented with ROCK inhibitors (Torcis) using LIPOFECTAMINE™ RNAiMAX™ (Life Technologies). siRNA targeting NNMT (Hs-NNMT-8) was purchased from Qiagen as FLEXITUBE® siRNA premix, and siRNA targeting luciferase was used as control. siRNAs against NNMT and luciferase were used at 50 nM final concentration. […] Bright field and fluorescence images were taken after 3 days. […]
# [2] = tested on: Wnt signaling (BAR reporter) in Elf1 cells; test: BAR Wnt reporter activity in Elf1 reporter cells; conditions: for BAR reporter activity: naïve Elf1 cells, 72 h, IWP2 2 μM, XAV939 5 μM, siRNA 10 nM
# Experimental: Elf1 cells grown in naïve media (2iL or 2iLIF) or primed media (AF) were infected with BAR reporter lentivirus and seeded onto MATRIGEL®-coated plates in MEF-CM with 10 μM Y-27632, and 1 μM Thiazovivin (ROCK inhibitors, Tocris). Transduced Elf cells were cultured for a week on MATRIGEL®, then passaged onto MEF plates for further selection and expansion. Elf1 naïve reporter cells were harvested as single cells via TRYPLE™ Express and FACS sorted for the population with both Venus and DsRed (Discosoma sp. Red fluorescent protein) positive signals. DsRed positive colonies of Elf1 primed reporter cells were manually dissected, transferred onto MEF plates, and the same positive selection was repeated one more round or two depending on the selection efficiency. Negative colonies were manually removed as a negative selection. Once the DsRed positive lines were isolated and stable lines established, the primed Elf1 reporter cells were passaged with dispase.
# (§2) Wnt secretion and signaling were inhibited in naïve hESCs (Elf1, WIN1) by treatment with IWP2 (2 μM, Torcis) or XAV939 (5 μM, Sigma). Wnt pathway was activated in primed Elf1 AF reporter cells using a GSK3 inhibitor, CHIR99021 (72 hr, 10 μM, AxonMedChem). Both IWP2 and CHIR99021 were reconstituted in DMSO.
# L and L-Wnt3A cells (ATCC) were cultured in 15 cm plates in 10% FBS/DMEM media until 90% confluent. Medium was collected every 48 hr for three batches. Biological activity of secreted Wnt3A in the individual batches of the conditional medium was confirmed in 293T-BAR reporter cells, then batches were pooled and filtered. Primed (Elf1 AF) reporter cells were grown on MATRIGEL® with 50% LCM or 50% Wnt3A-CM for 3 days prior taking bright field and fluorescent pictures.
# Naïve Elf1 2iLIF cells were transfected in MATRIGEL® coated plates in MEF-CM supplemented with ROCK inhibitors (Torcis) using LIPOFECTAMINE™ RNAiMAX™ (Life Technologies). siRNA targeting NNMT (Hs-NNMT-8) was purchased from Qiagen as FLEXITUBE® siRNA premix, and siRNA targeting luciferase was used as control. siRNAs against NNMT and luciferase were used at 50 nM final concentration. Proteins and RNAs were extracted 72 hr after transfection. siRNA targeting beta-catenin (Invitrogen, CTNNBI, SILENCER® Select ID s437) and SILENCER® Select Negative Control 1 (Invitrogen) were transfected in naïve Elf1 2iLIF cells at 10 nM final concentration following a reverse transfection protocol. Bright field and fluorescence images were taken after 3 days. The efficacy of NNMT and beta-catenin siRNAs was confirmed by qPCR analysis.
# [3] = tested on: NNMT, miR-372, miR-10a expression in naïve hESCs (Elf1); test: qPCR analysis of NNMT and microRNA expression; conditions: IWP2 2 μM, 72 hr
# Experimental: Total RNA was extracted using TRIZOL® and subsequently analyzed by SYBR® green qPCR with the 7300 real time PCR system (Applied Biosystems) as well as TAQMAN® qPCR (Applied Biosystems).
# qPCR of miRNAs was conducted using AQMAN®miRNA assays (Applied Biosystems). Raw Ct (threshold cycle) values for miRNAs were normalized to RNU66 (endogenous snoRNA, internal control). Linear expression values for all qPCR experiments were calculated using the 2 (−ΔCt) method. P-values were calculated using a student's t-test (*p<0.05, **p<0.01, ***p<0.001).
# as §2, §1
# [4] = tested on: naïve hESCs (WIN1, Elf1); test: Seahorse mitostress protocol, OCR changes in response to FCCP; conditions: for OCR changes in response to FCCP: naïve hESCs (WIN1)
# Experimental: Naïve and primed ESCs were seeded in their specific growth media onto 96-well Seahorse plates (Seahorse Bioscience) pre-coated with MATRIGEL® at 25×10^4 or 40×10^4 cells/well. Culture media were exchanged for base media (unbuffered DMEM (Sigma D5030) supplemented with sodium pyruvate (Gibco, 1 mM) and with 25 mM glucose (for mito stress assay), 25 mM glucose and 50 μM carnitine (for palmitate assay), or 2 mM glutamine (for glucose stress assay)) 1 hr prior to the assay and for the duration of the measurement. Substrates and selective inhibitors were added during the measurements to achieve final concentrations of glucose (2.5 mM), […] (FCCP, 300 nM-500 nM), oligomycin ([…]), antimycin (2.5 μM), rotenone (2.5 μM), palmitate (50 μM in BSA), BSA (bovine serum albumin) and ETO (50 μM).
# The mitochondrial stress protocol starts with the measurement of baseline oxygen consumption rate (OCR) and extracellular acidification rate (ECAR) followed by measurement of OCR and ECAR changes in response to addition of oligomycin, FCCP and finally antimycin and rotenone.
# Then palmitate assay starts with the measurement of baseline OCR followed by measurement of OCR changes in response to injection of palmitate or BSA (in negative controls) and ETO. The OCR and ECAR values were further normalized to the number of cells present in each well, quantified by Hoechst staining (H033342; Sigma-Aldrich) as measured using fluorescence at 355 nm excitation and 460 nm emission (ENVISION® 2104 Multilabel reader, Perkin Elmer). Changes in OCR and ECAR in response to substrates and inhibitors addition were defined as the maximal change after the chemical addition compared to the last OCR value before the addition.
# as §2
# WIN1 and Elf1 cells were seeded in Seahorse plates in naïve (WIN1, Elf1) or primed (WIN1 AF) conditions with or without Kynurenine (100 μM, Sigma) and mitostress protocol was performed 2 days later.
# WIN1 cells were seeded in Seahorse plates 2 days prior change of media with media without L-methionine (Sigma 0422 supplemented with 0.584 gm/L L-glutamine) and addition of SAM (500 μM). Five hours later Seahorse mitostress protocol was performed.
# [5] = primed hESCs (Elf1 AF), 3 days, CHIR99021 10 μM, 50% Wnt3A-CM
smiles,measurement,setting,value
"C[n+]1cccc(C(N)=O)c1 [1MNA, 1-methylnicotinamide]",H3K27me3 mark,[1],reduces
same,H3K27me3 mark,[1]; listed as 1 MNA,decreased
Cc1c[nH]c(-c2cnc(NCCNc3ccc(C#N)cn3)nc2-c2ccc(Cl)cc2Cl)n1 [CHIR99021],BAR reporter,[2]; [5],re-activation
same,differentiation,[2]; [5],induces differentiation
Cc1ccc2nc(NC(=O)CSc3nc4c(c(=O)n3-c3ccccc3)SCC4)sc2c1 [IWP2],NNMT expression (qPCR),[3],downregulates
same,miR-372 expression (qPCR),[3],downregulates
same,OCR changes after FCCP,"[4]; IWP2 2 μM, 48 hr, naïve hESCs (Elf1, WIN1) and transitioning to primed (WIN1 AF)",decreases
same,BAR reporter activity,[2],represses; also recorded: inhibit
"C[S+](CC[C@H](N)C(=O)[O-])C[C@H]1O[C@@H](n2cnc3c(N)ncnc32)[C@H](O)[C@@H]1O (stereo partly shown) [SAM, S-adenosyl methionine]",OCR changes in response to FCCP,"[4]; SAM 500 μM, 5 hr, media without methionine",reduces
same,metabolic profile in naïve hESCs,[4]; high levels of SAM (FIG. 4K-4L),induce a primed-like metabolic profile
Oc1nc(-c2ccc(C(F)(F)F)cc2)nc2c1CSCC2 [XAV939],BAR reporter activity,[2],dramatically downregulated; also recorded: inhibit
Nc1ccccc1C(=O)CC(N)C(=O)O (stereo not shown) [kynurenine],OCR changes in response to FCCP,"[4]; kynurenine 100 μM, 2 days",reduced
same,naïve to primed hESC metabolic switch,[4]; kynurenine added to the media (FIG. 4E),accelerated
